Consider 9 molecules from US11731974B2, “N-acyl-(3-substituted)-(8-substituted)-5,6-dihydro-[1,2,4]triazolo[4,3-a]pyrazines as selective NK-3 receptor antagonists” (Ogeda SA, priority 2013, dated 2023).

In one assay the test system is circulating LH levels. In words: Castrated male rat model, circulating levels of luteinizing hormone (LH). In kind it is in vivo. The settings on record: single oral dose less than or equal to 30 mg/kg, p<0.05. The procedure:
In Vivo Assay to Assess Compound Activity in Rat (Oral Dosing)
Castrated male rat model to assess the effect of compound of invention on circulating levels of luteinizing hormone (LH)
The effect of compounds of the invention to inhibit luteinizing hormone (LH) secretion is determined by the following biological studies.
In humans and rodents, castration is well-precedented to permit heightened, persistent GnRH signaling and consequent elevation of circulating LH. Thus, a castrated rat model is used to provide a broad index for measurement of LH inhibition as a marker of test compound inhibition of the GnRH signaling pathway.
Castrated adult male Sprague-Dawley (SD) rats (150-175 g) were purchased from Janvier (St Berthevin, France). All animals were housed 2 per cage in a temperature-controlled room (22±2° C.) and 50±5% relative humidity with a 12 hour/12 hour light/dark cycles (lights off at 6 h00 pm). The animals were allowed 3 weeks of postoperative recovery prior to study. Animals were handled on a daily basis. Standard diet and tap water were provided ad libitum. Animal cage litters were changed once a week. On the study day, animals were acclimated to the procedure room for a period of one hour prior to the initiation of the experiment.
Compounds of the invention were formulated in 0.5% methyl cellulose.
After basal sampling (TO) a single dose of compounds of the invention or vehicle was administrated orally to rats. Blood samples were then collected at several time points post dosing (45, 90, 150, 300 and 420 minutes). Blood samples were obtained via tail vein bleed, drawn into EDTA-containing tubes and centrifuged immediately. Plasma samples were collected and stored in a −80° C. freezer until assayed. Serum LH levels were determined using radioimmunoassay kit from RIAZEN—Rat LH, Zentech (Liege, Belgium). Baseline was defined as the initial basal blood sample.

For a further assay, the system named is plasma testosterone. In words: Plasma testosterone in gonad intact male rats. It counts as in vivo, rat. The conditions noted are these: 3 mg/kg single oral, vs vehicle, FIG. 1.
The subject of assay [1] is serum TT, LH, FSH in women with PCOS. In words: Phase 2a clinical trial, PolyCystic Ovary Syndrome (PCOS). It counts as in vivo, human. The conditions noted are these: 180 mg QD. The procedure:
The Phase 2a trial was double blind and randomized.
Blood draws for LH, FSH and TT were taken every visit between 2 and 8 hours after drug intake (baseline and week 3-6-12). […] These blood draws were the basis for assessing the primary (TT) and secondary (LH, FSH, LH:FSH ratio) endpoints. The primary endpoint of Total Testosterone was measured according to GLP using an LC-MS/MS method.
PCOS is typically characterized by excessive ovarian androgen production, failure of ovulation, and slightly enlarged ovaries with numerous peripheral small follicles that appear as cysts. The disorder is commonly accompanied by infertility. Typically, the clinical features of PCOS are associated with hypersecretion of LH and androgens (TT) but with normal serum concentrations of FSH hormone.
Statistical analyses performed by 2-way ANOVA comparing placebo to treatment.

In the next assay the test system is plasma estradiol. In words: Estradiol circulating level in female rats. The settings on record: 10 mg/kg b.i.d. oral, two consecutive estrous cycles, FIG. 3. It counts as in vivo, rat.
Assay [2] concerns body temperature in ovariectomized ewes. In words: In vivo assay in OVX ewes, thermoregulation. The conditions noted are these: 1 mg/kg intravenous. Set-up: species or system ewe. The text has this:
In Vivo Assay in OVX Ewes-Activity in Thermoregulation Experimental Methods: Evaluation of Thermoregulation in OVX Ewe […] After 4 months recovery, animals were acclimatised to housing in single pens for a period of 7 days with ad libitum access to water and […] lucerne hay. One day prior to experimentation, the animals received a jugular vein cannula ([…], Tuta Laboratories, Lane Cove, Australia). The cannula were kept patent with heparinised saline. […] Animals were fed at 12 h00. Rectal temperatures were monitored with a probe at hourly intervals throughout the experiment, starting at 7 h40 and concluding at 15 h40. […] However, this pyrogenic response to feeding in ovarectomized ewes was not observed in any animals treated with compound no 5. […] Graphical data presented as mean±SEM for vehicle-treated versus compound no 5-treated ewes (N=5/group). Statistical analyses performed by 2-way ANOVA followed by Sidak's Multiple Comparisons Test between treatment groups at the indicated time interval, *p<0.05. Conclusions: Ovariectomy in the ewe causes changes in core body temperature considered analogous to menopausal hot flashes ([…], Bryant, & Turner, 2003) to the extent that a transient, pyrogenic response to feeding is observed (Henry, Dunshea, Gould, & Clarke, 2008).

Structures are written as SMILES.

Description for plasma estradiol: Effect of compounds of the invention on Estradiol circulating level in female rats. The aim of this study was to evaluate the effect of compounds of the invention on plasma estradiol levels following oral administration at 10 mg/kg (b.i.d.) for a period of 10 days in female rats.
(§1) Briefly the experimental methods used for this study were as follows:
Two groups of adult, female rats (Sprague-Dawley, ˜320 g) were treated in-phase with their individual estrous cycles. […] Compounds of the invention were prepared in a dose formulation of pyrogen-free water with 0.5% methylcellulose. Estradiol levels were determined for all groups by ELISA performed on plasma samples derived from blood collections taken at 30 minutes before the daily, 9 h30 test article administration on all days presented in FIG. 3.
Description for plasma testosterone: The study was designed to evaluate the effect of compounds of the invention on testosterone circulating levels following oral administration at 3 mg/kg on SD gonad intact male rats.
as §1
Two groups of non-fasted rats (male, Sprague-Dawley, 200 to 225 g; n=4 rats/group) with jugular vein cannulation, were dosed via a single oral administration of compounds of the invention at 3 mg/kg. The control group was dosed with the vehicle. Compounds of the invention were prepared in a dose formulation of pyrogen-free water with 0.5% methylcellulose. Blood samples were collected via the catheter implanted in the jugular vein at pre-determined intervals using EDTA-3K as anti-coagulant. Samples were chilled and rapidly processed by centrifugation to obtain corresponding plasma samples. Testosterone hormone levels were determined by RIA performed on plasma samples collected for all the groups at 5 minutes before administration (basal time), and at 45, 90, 150, 300, 480 minutes and 24 hours after dosing.

Regarding `Cc1nsc(-c2nnc3n2CCN(C(=O)c2ccc(Cl)c(Cl)c2)[C@@H]3C)n1` [Compound 1, (R)-(3,4-dichlorophenyl)(8-methyl-3-(3-methyl-1,2,4-thiadiazol-5-yl)-5,6-dihydro-[1,2,4]triazolo[4,3-a]pyrazin-7(8H)-yl)methanone], the “circulating LH levels” value in the assay with circulating LH levels was “significantly suppressed”. In the case of `CCc1nsc(-c2nnc3n2CCN(C(=O)c2ccc(F)cc2)[C@@H]3C)n1` [Compound 2, (R)-(3-(3-ethyl-1,2,4-thiadiazol-5-yl)-8-methyl-5,6-dihydro-[1,2,4]triazolo[4,3-a]pyrazin-7(8H)-yl)(4-fluorophenyl)methanone], in the assay on circulating LH levels, the “circulating LH levels” value is “significantly suppressed”. With `Cc1nsc(-c2nnc3n2CCN(C(=O)c2ccc(Cl)c(F)c2)[C@@H]3C)n1` [Compound 4, (R)-(4-chloro-3-fluorophenyl)(8-methyl-3-(3-methyl-1,2,4-thiadiazol-5-yl)-5,6-dihydro-[1,2,4]triazolo[4,3-a]pyrazin-7(8H)-yl)methanone], the “circulating LH levels” value in the assay with circulating LH levels is given as “significantly suppressed”. With `Cc1nsc(-c2nnc3n2CCN(C(=O)c2ccc(F)cc2)[C@@H]3C)n1` [Compound 5, (R)-(4-fluorophenyl)(8-methyl-3-(3-methyl-1,2,4-thiadiazol-5-yl)-5,6-dihydro-[1,2,4]triazolo[4,3-a]pyrazin-7(8H)-yl)methanone], the plasma testosterone level result in the assay with plasma testosterone was “significantly suppressed”. For the same molecule, in assay [1], the FSH secretion entry is “preserved”, the LH result is recorded as “significant decrease”, the “LH:FSH in comparison of placebo” value is “significantly reduced” and the “TT in comparison of placebo” value is “significantly reduced”. Further, in the assay with plasma estradiol, the estradiol levels entry is on record as “significantly decreased”. In the assay with circulating LH levels, the “circulating LH levels” value is “significantly suppressed”. The “pyrogenic response to feeding” value in assay [2] is listed as “not observed”. Consider `Cc1nsc(-c2nnc3n2CCN(C(=O)c2ccc(F)c(F)c2F)[C@@H]3C)n1` [Compound 8, (R)-(8-methyl-3-(3-methyl-1,2,4-thiadiazol-5-yl)-5,6-dihydro-[1,2,4]triazolo[4,3-a]pyrazin-7(8H)-yl)(2,3,4-trifluorophenyl)methanone], for which, in the assay on circulating LH levels, the “circulating LH levels” value is listed as “significantly suppressed”. Consider `Cc1nsc(-c2nnc3n2CCN(C(=O)c2ccc(F)c(F)c2)[C@@H]3C)n1` [Compound 9, (R)-(3,4-difluorophenyl)(8-methyl-3-(3-methyl-1,2,4-thiadiazol-5-yl)-5,6-dihydro-[1,2,4]triazolo[4,3-a]pyrazin-7(8H)-yl)methanone], for which the “circulating LH levels” value in the assay with circulating LH levels is listed as “significantly suppressed”.

In the case of `CCc1noc(-c2nnc3n2CCN(C(=O)c2ccc(F)cc2)[C@@H]3C)n1` [Compound 13, (R)-(3-(3-ethyl-1,2,4-oxadiazol-5-yl)-8-methyl-5,6-dihydro-[1,2,4]triazolo[4,3-a]pyrazin-7(8H)-yl)(4-fluorophenyl)methanone], in the assay with circulating LH levels, the “circulating LH levels” value is “significantly suppressed”. Take `Cc1nsc(-c2nnc3n2CCN(C(=O)c2ccccc2)[C@@H]3C)n1` [Compound 20, (R)-(8-methyl-3-(3-methyl-1,2,4-thiadiazol-5-yl)-5,6-dihydro-[1,2,4]triazolo[4,3-a]pyrazin-7(8H)-yl)(phenyl)methanone]: the “circulating LH levels” value in the assay on circulating LH levels is recorded as “significantly suppressed”.

With `CCc1noc(-c2nnc3n2CCN(C(=O)c2ccc(-c4cccs4)cc2)[C@@H]3C)n1` [Compound 30, (R)-(3-(3-ethyl-1,2,4-oxadiazol-5-yl)-8-methyl-5,6-dihydro-[1,2,4]triazolo[4,3-a]pyrazin-7(8H)-yl)(4-(thiophen-2-yl)phenyl)methanone], the “circulating LH levels” value in the assay on circulating LH levels is “significantly suppressed”.
